Experimental data taken from patent US6831101B2, “Tricyclic rantes receptor ligands” (Chemokine Therapeutics Corporation, priority 2001, dated 2004).

Tests used:
[1] = system: CCR-1, -3, -4, and -5 receptors on THP-1 cells; experiment: Competitive inhibition of 125I-RANTES binding to THP-1 cells; details: for % Inhibition (4 ug/ml) of 125I-RANTES binding: 4 ug/ml compound
Method: The binding studies were conducted using I^125 labeled RANTES as competitor and THP-1 cell lines.

[2] = system: RANTES-induced [Ca2+]i mobilization in THP-1 cells; experiment: Inhibition of RANTES-induced [Ca2+]i mobilization in THP-1 cells; format: cell-based
Method: A rapid, transient rise in the free cytosolic Ca^2+ concentration ([Ca^2+]i) is one of the events in neutrophil activation and is assumed to be involved in many of the subsequent cellular reactions. Both Ca^2+ release from intracellular stores and Ca^2+ influx from the extracellular space contribute to the rise in [Ca^2+]i. […] Fura-2,AM loaded THP-1 cells were incubated with CTCM189 for 60 min prior to induction of [Ca^2+]i mobilization by 10 nM RANTES.

[3] = system: murine Experimental Allergic Encephalomyelitis (EAE); experiment: EAE mouse model of multiple sclerosis, clinical severity grading; format: in vivo; details: 5, 20 and 40 mg/kg/day for 19 days, SJL/J mice, compared to control, FIG. 3
From the text: Experimental autoimmune encephalomyelitis (EAE) is a CD4^+ Th1-mediated inflammatory demyelinating disease of the central nervous system (CNS) that serves as a model for multiple sclerosis and other autoimmune diseases. It has previously been disclosed that RANTES regulates acute and relapsing autoimmune encephalomyelitis, and that RANTES production in the central nervous system is correlated with relapsing EAE development. In this example, the EAE mouse model (SJL/J mice) for MS is used, in which the disease is induced with Bordetella pertussis toxin (Claude C. A. et. al., (1975) Journal of Immunology 114(5): 1537-1540 and Hosseimi, H. et. al., (2000) Neurology 54 (7): A 166, An abstract presented in April 2000 on “Inhibition of proteosome prevents clinical signs in an experimental model of Multiple Sclerosis”).
Data for FIG. 3 was collected in an experiment involving five groups of 10 mice each, as follows: group I, normal control (no drug, no disease); group II, EAE control (MBP but no drug); group III, drug at 5 mg/kg body weight; group IV, drug at 20 mg/kg body weight; group V, drug at 40 mg/kg body weight. Three different concentrations of neoabietic acid were given to animals for 19 days: 5, 20, and 40 mg/kg/day in a volume of 100 ul Cremophore EL (Sigma). […]

SMILES	% Inhibition (4 ug/ml) of 125I-RANTES binding [1]	IC50 ([1]; I125 labeled RANTES, THP-1 cells, data of FIG. 1, read-out: IC50, inhibition of binding of RANTES to THP-1 cells expressing CCR-1, -3, -4, and -5)	IC50 ([2]; Homo sapiens, Fura-2,AM loaded THP-1 cells, 60 min preincubation, 10 nM RANTES)	Inhibition of RANTES-induced [Ca2+]i mobilization at 5 uM ([2]; THP-1 cells, 5 uM compound)	Effect on clinical scores in EAE [3]
C=C[C@]1(C)C=C2CC[C@@H]3[C@](C)(CCC[C@@]3(C)C(=O)O)[C@H]2CC1 [B, Sandaraco-pimaric acid]	36%				
CC(C)=C1C=C2CC[C@@H]3[C@](C)(CCC[C@@]3(C)C(=O)O)[C@H]2CC1 [Compound 1, 8(14), 13(15)-abietadien-18-oic-acid]	68%	253 nM	27.2 nM	almost complete inhibition	beneficial effect on the clinical scores
C=C[C@@]1(C)C=C2CC[C@@H]3[C@](C)(CCC[C@@]3(C)C(=O)O)[C@H]2CC1.N [C, Ammonium Pimarate]	48%				
